Measurements as given in the NIST ThermoML archive (doi:10.1021/je200811n).
± gives the expanded uncertainty stated by the source.

Settings: Hot wire method

C=C(F)C(F)(F)F [2,3,3,3-tetrafluoro-1-propene]
Settings | thermal conductivity [W/m/K]
241.92 K, 6085 kPa, Liquid | 0.08525 ± 0.00094
241.92 K, 10976 kPa, Liquid | 0.08707 ± 0.00096
241.93 K, 15764 kPa, Liquid | 0.08965 ± 0.00099
241.94 K, 69 kPa, Gas | 0.00942 ± 0.00033
241.95 K, 77 kPa, Gas | 0.00944 ± 0.00033
241.95 K, 20987 kPa, Liquid | 0.09158 ± 0.001
241.97 K, 86 kPa, Gas | 0.00944 ± 0.00033
242 K, 880 kPa, Liquid | 0.08218 ± 0.00091
242.01 K, 6088 kPa, Liquid | 0.08496 ± 0.00093
242.01 K, 10981 kPa, Liquid | 0.08718 ± 0.00096
242.02 K, 15753 kPa, Liquid | 0.08918 ± 0.00098
242.19 K, 69 kPa, Gas | 0.00931 ± 0.00033
242.2 K, 78 kPa, Gas | 0.00934 ± 0.00033
242.22 K, 87 kPa, Gas | 0.00935 ± 0.00033
242.34 K, 883 kPa, Liquid | 0.08243 ± 0.00091
242.34 K, 10985 kPa, Liquid | 0.08732 ± 0.00096
242.34 K, 15757 kPa, Liquid | 0.08916 ± 0.00098
242.35 K, 6087 kPa, Liquid | 0.08514 ± 0.00093
242.35 K, 20980 kPa, Liquid | 0.09106 ± 0.001
242.35 K, 21022 kPa, Liquid | 0.09102 ± 0.00099
242.46 K, 15754 kPa, Liquid | 0.08876 ± 0.00097
242.47 K, 69 kPa, Gas | 0.00926 ± 0.00033
242.47 K, 78 kPa, Gas | 0.00926 ± 0.00033
242.47 K, 886 kPa, Liquid | 0.08219 ± 0.0009
242.47 K, 6087 kPa, Liquid | 0.08483 ± 0.00093
242.47 K, 10989 kPa, Liquid | 0.08709 ± 0.00095
242.5 K, 87 kPa, Gas | 0.00928 ± 0.00033
242.52 K, 87 kPa, Gas | 0.00925 ± 0.00032
242.54 K, 68 kPa, Gas | 0.00927 ± 0.00033
242.54 K, 76 kPa, Gas | 0.00929 ± 0.00033
242.8 K, 20976 kPa, Liquid | 0.09105 ± 0.00099
242.81 K, 10986 kPa, Liquid | 0.08711 ± 0.00095
242.81 K, 15750 kPa, Liquid | 0.08896 ± 0.00097
242.81 K, 21021 kPa, Liquid | 0.09106 ± 0.001
242.83 K, 6086 kPa, Liquid | 0.08481 ± 0.00093
242.85 K, 891 kPa, Liquid | 0.08226 ± 0.0009
242.88 K, 87 kPa, Gas | 0.00926 ± 0.00033
242.9 K, 77 kPa, Gas | 0.00929 ± 0.00033
242.91 K, 68 kPa, Gas | 0.0093 ± 0.00033
242.94 K, 15756 kPa, Liquid | 0.08889 ± 0.00097
242.96 K, 10985 kPa, Liquid | 0.08695 ± 0.00095
242.98 K, 6086 kPa, Liquid | 0.08445 ± 0.00093
243 K, 892 kPa, Liquid | 0.082 ± 0.0009
243.28 K, 86 kPa, Gas | 0.00928 ± 0.00033
243.29 K, 21014 kPa, Liquid | 0.09132 ± 0.001
243.3 K, 77 kPa, Gas | 0.0093 ± 0.00033
243.3 K, 20966 kPa, Liquid | 0.09102 ± 0.001
243.31 K, 69 kPa, Gas | 0.00933 ± 0.00033
243.32 K, 10987 kPa, Liquid | 0.08693 ± 0.00095

Settings | thermal conductivity [W/m/K]
243.15 K, Liquid | 0.08189 ± 0.00053
